Measurements as given in patent publication US20030109570A1 (priority 2002, published 2003).
Where a name gives a salt, the structure may show the parent alone.

Columns and labels:
human PPARα receptor = biological target: T1, human PPARα receptor (Homo sapiens, UniProt Q07869); experiment: Luciferase assay using human PPARα receptor (Gal4 chimera, CV-1 cells); type: cell-based; settings: 24 h, luciferase activity of Wy-14.643 at 10 μM = 100, read-out: PPARα agonist activity, Relative activity
T1 construct: and; expressed in transfected cells; host or cells: CV-1 cells, pSG5-based Gal4-PPAR expression vector
T1 sequence (Q07869 167-468): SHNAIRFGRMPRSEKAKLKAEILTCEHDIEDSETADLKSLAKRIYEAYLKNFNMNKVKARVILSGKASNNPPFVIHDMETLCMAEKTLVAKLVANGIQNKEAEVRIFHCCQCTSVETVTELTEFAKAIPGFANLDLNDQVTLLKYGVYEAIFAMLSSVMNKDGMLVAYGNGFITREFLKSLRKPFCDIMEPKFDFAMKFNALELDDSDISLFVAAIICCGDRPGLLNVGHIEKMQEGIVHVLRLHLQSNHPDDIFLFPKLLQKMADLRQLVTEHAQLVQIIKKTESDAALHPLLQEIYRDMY
Description: (§1) 1) Materials for a Luciferase Assay Using Human PPARα and γ
(§2) The entire procedure was conducted using a usual yeast one- or two-hybrid system according to a basic genetic engineering process.
(§3) pGL2-UAS5-TK-luc was prepared as a reporter plasmid having a response sequence of the Gal4 protein as an yeast basic transcription factor and a luciferase gene (luc) under the control by an enhancer sequence with five times repeats of UAS and the thymidine kinase (TK) promoter promoter.
(§4) A vector expressing a chimera receptor in which a ligand binding region in an intranuclear receptor human PPARα or γ receptor was fused to the […] terminus in the DNA binding region of the yeast Gal4 protein was prepared as follows. Specifically, using pSG5 (trade name, STRATAGENE, Catalogue No.216201) as a basic expression vector, the structural gene was replaced with that of a chimera receptor.
(§5) A DNA encoding the ligand binding region in human PPARα or γ receptor was inserted downstream of the DNA binding region in the Gal4 protein, i.e., the DNA encoding the 1st to 147th amino acid sequence such that the frames were aligned and it was inserted downstream of the promoter-enhancer region in pSG5 (trade name). For localizing the expressed chimera receptor in the nucleus, the DNA sequence was constructed such that a nuclear transition signal derived from SV-40T antigen, Ala Pro Lys Lys Lys Arg Lys Val Gly (SEQ ID NO. 4) was present at the amino terminus of the ligand binding region in the human PPARα or γ receptor.
(§6) As the structural gene segment for a ligand binding region in the human PPARα or γ receptor, a DNA was used which encoded:
human PPARα ligand binding region: Ser^167-Tyr^468; and
(§7) 2) Luciferase Assay Using the Human PPARα or γ Receptor
(§8) CV-1 cells used as a host cell were cultured as usual. Specifically, a fetal calf serum (Intergen, Catalogue No.1020-90) was added to the Dulbecco modified eagle medium (DMEM) to the final concentration of 10%, and penicillin G and streptomycin sulfate were then added to the final concentrations of 50 U/mL and 50 μg/mL, respectively. In the medium, the cells were cultured at 37° C. under 5% carbon dioxide.
(§9) The day before transfection, the cells were inoculated in a 24 well plate at 1.5×10^5 cells/well in advance. LipofectAMINE (trade name, GIBCOBRL, Catalogue No.26300-61) was used for transfection. Specifically, for each well, in 40 μL of a serum-free medium Opti-MEM (trade name, GIBCOBRL, Catalogue No.31985-070) were well mixed 100 ng of a reporter plasmid, 12.5 ng of Gal4-PPAR expression vector, 200 ng of pRL-TK (trade name) as an internal control, 287.5 ng of pGEM-3Zf(+) (trade name, PROMEGA, Catalogue No. P2271) as a carrier DNA and 2.6 μL of LipofectAMINE (trade name, GIBCOBRL, Catalogue No.26300-61). To the mixture was added 170.2 μL of Opti-MEM (trade name). After washing with PBS (Phosphate Buffered Saline) and Opti-MEM (trade name), the mixture was added to the above cells. After culturing at 37° C. for 16 hours, the medium was replaced with DMEM-10% charcoal-[…] treated fetal calf serum (trade name, HyClone, Catalogue No. SH30068.03) containing a compound of this invention. After culturing at 37° C. for 24 hours, the cells were lysed and determined for its luciferase activity as usual.

human PPARγ receptor = biological target: T2, human PPARγ receptor (Homo sapiens, UniProt P37231); experiment: Luciferase assay using human PPARγ receptor (Gal4 chimera, CV-1 cells); type: cell-based; settings: 24 h, luciferase activity of Pioglitazone at 1 μM = 100, read-out: PPARγ agonist activity, Relative activity
T2 construct: expressed in transfected cells; host or cells: CV-1 cells, pSG5-based Gal4-PPAR expression vector
T2 sequence (P37231 204-505): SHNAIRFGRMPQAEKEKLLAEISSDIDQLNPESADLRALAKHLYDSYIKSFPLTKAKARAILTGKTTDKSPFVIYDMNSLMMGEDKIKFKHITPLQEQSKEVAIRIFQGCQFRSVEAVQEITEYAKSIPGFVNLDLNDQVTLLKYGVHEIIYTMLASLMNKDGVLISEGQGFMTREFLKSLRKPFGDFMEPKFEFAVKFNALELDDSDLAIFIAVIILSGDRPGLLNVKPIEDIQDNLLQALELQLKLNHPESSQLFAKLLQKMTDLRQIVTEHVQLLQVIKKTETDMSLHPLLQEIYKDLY
Description: as §1, §2, §3, §4, §5, §6
human PPARγ ligand binding region: Ser^176-Tyr^478
which correspond to Ser^204-Tyr^506 in the human PPARγ 1 receptor and PPARγ 2 receptor and thus have the same base sequence, from structural comparison for human PPAR receptors described in R. Mukherjee et al., J. Steroid Biochem. Molec. Biol., Vol. 51, p.157 (1994); M. E. Green et al. (Gene Expression., Vol.4, p.281 (1995). For monitoring an effect on basic transcription, was also prepared an expression vector having encoding only the DNA binding region of the Gal4 protein lacking the PPAR ligand binding region, the 1st to 147th amino acid sequence and a nuclear transition signal for SV-40T-antigen.
as §7, §8, §9

KKAy mouse = experiment: Hypoglycemic and hypolipidemic effects using a diabetic model mouse (KKAy mouse); type: in vivo; settings: KKAy mice, 30 mg/kg orally once daily for four days, fifth day vs first day; for Reduction rate of a free fatty acid level / Reduction rate of a triglyceride level: plasma
Description: Type II diabetic mice “KK-Ay/Ta Jci” (male, Nippon Clare, 10 weeks, five per a group) in each cage were used. In the morning of the initial day of the study, blood was collected from an orbital vein. A glucose level was determined using a new blood sugar test (Boehringer Mannheim) for a centrifuge supernatant after deproteination of the blood with perchloric acid. The blood was centrifuged to prepare a plasma. Then, a triglyceride and a free fatty acid levels in the plasma were determined using Triglyceride E-Test Wako and NEFA-C Test Wako (Wako Pure Chemicals, Inc.), respectively. […] On the fifth day of the study, a blood was collected for determination of a blood glucose level, a triglyceride level and a free fatty acid level. A group to which only 0.5% aqueous CMC solution was administered was used as a control group while a group to which pioglytazone was administered was used as a positive control. A reduction rate for a parameter in each group was calculated using the following equation.

SMILES	Emax at 0.1 µM (human PPARα receptor) [%]	Emax at 1 µM (human PPARα receptor) [%]	Emax at 10 µM (human PPARα receptor) [%]	Emax at 0.1 µM (human PPARγ receptor) [%]	Emax at 1 µM (human PPARγ receptor) [%]	Emax at 10 µM (human PPARγ receptor) [%]	Reduction rate of a blood glucose level (KKAy mouse) [%]	Reduction rate of a free fatty acid level (KKAy mouse) [%]	Reduction rate of a triglyceride level (KKAy mouse) [%]
CC(Cc1cc2ccccc2s1)(C(=O)O)C(=O)NC1CCCCC1 (stereo not drawn) [Example 10, 2-(benzothiophen-2-yl)methyl-2-methylmalonic Acid N-cyclohexylamide]	0.1	0.1	20.7	1.2	2.1	31.2			
CCOC(=O)C(C)(Cc1cc2cc(OC)c(OC)cc2s1)Oc1ccc(C#N)cc1 (stereo not drawn) [Example 1]	0.2	0.2	0.5	0.4	3.2	81.5			
CCOC(=O)C(C)(Cc1cc2ccccc2s1)C(N)=O (stereo not drawn) [Example 8, 2-(benzothiophen-2-yl)methyl-2-methylmalonamide Ethyl Ester]	0.1	0.1	0.2	0.3	0.3	0.3			
CC(C)c1ccc(NC(=O)C(C)(Cc2cc3ccccc3s2)C(=O)O)cc1 (stereo not drawn) [Example 12, 2-(benzothiophen-2-yl)methyl-2-methylmalonic Acid N-(4-isopropylphenyl)amide]	0.2	0.2	0.2	0.3	0.3	0.5			
COc1cc2cc(CC(C)(Oc3ccc(C(C)C)cc3)C(=O)O)sc2cc1OC (stereo not drawn) [Example 3, 3-(5,6-dimethoxybenzothiophen-2-yl)-2-(4-isopropylphenoxy)-2-methylpropanoic Acid]	13.2	116	111	9.5	86.7	86.1			
COc1cc2cc(CC(C)(Oc3ccc(C(=N)N4CCOCC4)cc3)C(=O)O)sc2cc1OC (stereo not drawn) [Example 5, 3-(5,6-dimethoxybenzothiophen-2-yl) -2-methyl-2-(4-morpholinoamidinophenoxy)propanoic Acid Hydrochloride]	0.2	0.3	0.7	0.3	0.3	3.1			
CCCCNC(=O)C(C)(Cc1cc2cc(OC)c(OC)cc2s1)Oc1ccc(C#N)cc1 (stereo not drawn) [Example 16]	0.2	0.2	0.1	0.4	0.4	0.3			
COc1cc2cc(CC(C)(C(=O)O)C(=O)NC3CCCCC3)sc2cc1OC (stereo not drawn) [Example 14, 2-(5,6-dimethoxybenzothiophen-2-yl)methyl-2-methylmalonic Acid N-cyclohexylamide]	0.2	0.2	0.6	0.3	0.3	0.5			
COc1cc2sc(CC(C)(Oc3ccc(C(C)C)cc3)C(=O)O)cc2c(Cl)c1OC (stereo not drawn) [Example 4, 3-(4-chloro-5,6-dimethoxybenzothiophen-2-yl)-2-(4-isopropylphenoxy)-2-methylpropanoic Acid]	0.3	2.9	249	8	68	69.9	58	69	85
COc1cc2cc(CC(C)(Oc3ccc(C#N)cc3)C(N)=O)sc2cc1OC (stereo not drawn) [Example 15]	0.2	0.2	0.1	0.5	0.4	1.1			
COc1cc2sc(/C=C(\Oc3ccc(C(C)C)cc3)C(=O)O)cc2c(Cl)c1OC [Example 6, (Z)-3-(4-chloro-5,6-dimethoxybenzothiophen-2-yl)-2-(4-isopropylphenoxy)propenoic Acid]	0.1	0.1	0.1	1.2	19	60.1			
COc1cc2cc(CC(C)(Oc3ccc(C#N)cc3)C(=O)O)sc2cc1OC (stereo not drawn) [Example 2]	0.1	0.1	66.4	17.8	81.9	78.7			
CCc1ccc(CCOc2ccc(CC3SC(=O)NC3=O)cc2)nc1 (stereo not drawn) [Pioglytazone, Pioglitazone, reference compound]							28	49	60
CC(Cc1cc2ccccc2s1)(C(=O)O)C(=O)N1CCOCC1 (stereo not drawn) [Example 11, 2-(benzothiophen-2-yl)methyl-2-methylmalonic Acid N-morpholinoamide]	0.1	0.2	0.3	0.3	0.3	0.3			
